# Reference: US20040074447A1, “Methods of reducing incidence of stillborn pigs by using progesterone receptor antagonists” (priority 2002, published 2004)
# “And” between values parts separate entries of the source, which are not always exact repeats. Equal entries are not always repeated. “Also recorded” adds a separate entry of the source. Where two headings read alike, the source gives them in different places. Marks after values point to notes of the source that are not given here.
# Tests used:
# [1] = tested on: sows in labor; details: 150 μg, sows in labor before birth of the first pig; cited from earlier work
# [2] = tested on: pregnant crossbred female swine; experiment: Example 2: induction of farrowing in pregnant gilts, oral CP161,258 (two doses or single dose) or intramuscular porcine relaxin; type: in vivo; details: for effects on time to birth of the first pig, number born alive, or stillborns: 1200 U porcine relaxin IM on day 113; for Hr, Dose d 112 To 1st pig ± SD / Hr, Dose d 113 To 1st pig ± SD: mean ± SD; for Piglet data: Born alive / Piglet data: Mummies / Piglet data: Stillborn: mean; for Reason (animals with incomplete data) / Born Alive / Hr, 1st treatment to 1st pig / Mummies / Still-born: individual animals
# Experimental: Animals. […] This BW was used to calculate the amount of test article to administer (T2 and T3).
# Randomization of animals. Animals were ranked according to expected farrowing date and then randomly assigned to treatment within blocks of 4 animals each.
# Test article administration. […] For treatment groups T2 and T3, test article was diluted (a suspension) to a concentration of 25 mg/ml in 50% propylene glycol and stored refrigerated (2-8° C.).
# For treatment groups T2 and T3, animals were snared and test article was administered orally using a 60 ml syringe. […] One container of approximately 440 ml was mixed and used within each week of the 3 wk study. Each animal assigned to T2 or T3 also received approximately 30 ml of tap water to insure that test article was swallowed.
# Porcine relaxin was diluted to a concentration of 1200 U/ml in sterile physiological saline on the first day of use. Diluted porcine relaxin was stored in a locked refrigerator and removed only when injections took place. Relaxin (1 ml-T4) was administered intramuscularly in the lower part of the ham of either leg with an 18-gauge, 1.5″ long needle attached to a 3 ml syringe.
# Administration of test articles occurred between 7:30 am and 8:30 am on almost all days of the study.
# Piglets. Response variables measured in this study were: hours from the 1st treatment to the birth of the 1st pig, number of piglets that were alive at birth (born alive), stillborn (normal appearance term piglet, but dead at time of birth), and mummies (smaller than littermates, decayed at birth). Animals were not processed (no iron shots, no clipping of needle teeth, no individual identification), but umbilical cords were clipped to […]. length if animals could not be euthanized within 2 days after birth.
# Data/Analyses. […] Data were analyzed using a mixed model analysis with block as a random effect and treatment as a fixed effect (proc mixed, SAS).
# [3] = tested on: progesterone in plasma; experiment: Example 1: progesterone in plasma by RIA around farrowing; type: in vivo, swine; details: for Mean concentration of progesterone in plasma: n in parentheses; for p4 = concentration of progesterone in plasma: trt 2, individual animals
# Experimental: Blood samples. Blood samples were collected from all animals (including T1 and T2) prior to administration of test article at 7:30 am on days 112 and 113. In addition, a PM blood sample was collected beginning at approximately 1:30 pm on days 112 and 113. Additional blood samples were collected at 7:30 am and 1:30 pm on subsequent days (>or =day 114). The final blood sample was collected after farrowing was complete. All blood samples (7 ml) were collected using sodium heparin vacutainers. Samples were refrigerated, centrifuged, and plasma was separated within 2 hr after collection. One aliquot of each sample was sent to Cornell Veterinary Diagnostic Lab for progesterone analyses by RIA.
# (§1) Data/Analyses. Response variables measured in this study were: hours from the time of the 1st dosing on day 112 post-breeding to birth of the 1st pig, hours from the 2nd dosing on day 113 to birth of the 1st pig, number of piglets that were alive at birth (born alive), stillborn (normal appearance term piglet, but dead at time of birth), and mummies (smaller than littermates, decayed at birth). The variables were analyzed using a mixed model analysis (proc mixed, SAS) with block as a random effect and treatment as a fixed effect. Concentrations of progesterone were analyzed using a repeated measure mixed model analysis, with block as a random effect and treatment as a fixed effect.
# [4] = tested on: swine; details: 4 mg/kg body weight on days 111 and 112 post-breeding; cited from earlier work
# [5] = tested on: pregnant crossbred female swine; type: in vivo
# Excerpt: The objectives of this study were to determine the effects of administration of the progesterone receptor antagonist CP161,258 on the concentration of progesterone, the time interval from the 1st administration of test article on day 112 to birth of the 1st pig, the time interval from the 2nd administration of test article to birth of the 1st pig, and the status of piglets at birth (alive, stillborn, mummies).
# Animals. Twenty pregnant crossbred female swine were purchased and delivered to Terre Haute on approximately day 102-107 of gestation. These animals were placed in farrowing crates in building 608W. Animals assigned to T2 averaged 195 kg BW. Animals (sows and piglets) were euthanized within 48 hr post-farrowing or on day 116 post-mating. There was no estimate of pre-weaning mortality in this study.
# Randomization of animals. Animals were ranked according to expected farrowing date and randomly assigned to treatment within blocks of 2 animals each.
# Test article administration. […] For treatment group T2, test article was diluted to a concentration of 25 mg/ml in 50% propylene glycol and water, and stored refrigerated (2-8° C.). Test article was administered orally after the morning blood sample was collected. The volume administered was approximately 30 ml to deliver a dosage of 4 mg/kg BW. Animals were administered with approximately 30 ml of water following administration of test article.
# Early/late farrowing. […] If animals farrowed before day 114, the final blood sample was collected after farrowing was complete.
# as §1
# [6] = T4: 1200 U pRelaxin intramuscular day 113, counted from (day 113)
# [7] = T4: 1200 U pRelaxin intramuscular day 113
# [8] = Treatment 4: 1200 IU Relaxin intramuscular day 113
# [9] = 4 mg/kg BW orally days 112 and 113
# [10] = T2: 4 mg/kg BW CP161,258 orally D 112 + 113, mean ± SD, n in parentheses
# [11] = T2: 4 mg/kg BW orally D 112 + 113, mean per litter
# [12] = T2: 4 mg/kg BW CP161,258 oral D 112 + 113, counted from (day 112)
# [13] = T2: 4 mg/kg BW oral D 112 + 113
# [14] = T3: 8 mg/kg BW CP161,258 oral D 113, counted from (day 113)
# [15] = Treatment 2: 4 mg/kg oral days 112 and 113, 4 mg/kg
# [16] = Treatment 3: 8 mg/kg oral day 113, 8 mg/kg
compound,measurement,setting,value
CC(C)(C)NCC(O)c1cc(Cl)c(N)c(Cl)c1 (stereo not shown) [clenbuterol],delay of parturition,[1],up to 15 hr
Porcine relaxin,"effects on time to birth of the first pig, number born alive, or stillborns",[2],not effective
same,"effects on time to birth of the first pig, number born alive, or stillborns",[2]; listed as porcine relaxin,did not have beneficial effects
same,"Hr, Dose d 112 To 1st pig ± SD",[2]; [6],56 ± 26 (13) Hr
same,"Hr, Dose d 113 To 1st pig ± SD",[2]; [6],56 ± 26^d (13) Hr
same,Piglet data: Born alive,[2]; [7],6.4 (12)
same,Piglet data: Mummies,[2]; [7],0.3 (12)
same,Piglet data: Stillborn,[2]; [7],1.6 (12)
same,Reason (animals with incomplete data),[2]; T4 Relaxin,"Dystocia (born alive, stillborns, mummy count; also recorded: Dystocia-(born alive, stillborns, mummy count"
same,Born Alive,[2]; [8],6 (3×) and 3 and 8 and 4 (2×) and 9 (2×) and 1 and 14 and 7
same,"Hr, 1st treatment to 1st pig",[2]; [8],10.9 h and 25.3 h and 34.2 h and 47.4 h and 48.5 h and 49.2 h and 49.7 h and 51 h and 69.9 h and 74.9 h and 77.2 h and 82.4 h and 106.3 h
same,Mummies,[2]; [8],2 and 0 (10×) and 1
same,Still-born,[2]; [8],5 and 0 (2×) and 1 (4×) and 2 (5×)
"CC#CC1(O)CCC2C3CCC4=CC(=O)CCC4=C3C(c3ccc(N(C)C)cc3)CC21C (stereo not shown) [CP161,258, 11-(4-Dimethylamino-phenyl)-17-hydroxy-13-methyl-17-prop-1-ynyl-1,2,6,7,8,11,12,13,14,15,16,17-dodecahydro-cyclopenta[a]phenanthren-3-one]","concentrations of progesterone in plasma in the −24 hr period preceding parturition, compared to non-medicated controls",[3]; 4 mg/kg orally days 112 and 113,remained higher
same,Mean concentration of progesterone in plasma,"[3]; Sample time 0 (immediately before farrowing), T2",7.5 (9) ng/ml
same,Mean concentration of progesterone in plasma,"[3]; Sample time 1 (within 12 hr after farrowing was complete), T2",1.5 (9) ng/ml
same,Mean concentration of progesterone in plasma,"[3]; Sample time −1 relative to farrowing, T2",12.3* (9) ng/ml
same,Mean concentration of progesterone in plasma,"[3]; Sample time −2 relative to farrowing, T2",14.0* (8) ng/ml
same,Mean concentration of progesterone in plasma,"[3]; Sample time −3 relative to farrowing, T2",14.5 (5) ng/ml
same,Mean concentration of progesterone in plasma,"[3]; Sample time −4 relative to farrowing, T2 4 mg/kg orally days 112 and 113",14.2 (2) ng/ml
same,p4 = concentration of progesterone in plasma,[3]; time 0 (immediately before farrowing),5.76 ng/mL and 8.12 ng/mL and 5.62 ng/mL and 9.45 ng/mL and 13.37 ng/mL and 4.95 ng/mL and 9.41 ng/mL and 5.64 ng/mL and 7.17 ng/mL
same,p4 = concentration of progesterone in plasma,[3]; time 1 (within 12 hr after farrowing was complete),2.05 ng/mL and 1.34 ng/mL and 0.82 ng/mL and 1.62 ng/mL and 1.95 ng/mL and 4.50 ng/mL and 1.64 ng/mL and 1.11 ng/mL and 0.79 ng/mL
same,p4 = concentration of progesterone in plasma,[3]; time −1,8.27 ng/mL and 13.76 ng/mL and 13.88 ng/mL and 15.46 ng/mL and 18.89 ng/mL and 7.63 ng/mL and 8.18 ng/mL and 10.70 ng/mL and 16.70 ng/mL
same,p4 = concentration of progesterone in plasma,[3]; time −2,12.42 ng/mL and 17.27 ng/mL and 13.89 ng/mL and 15.47 ng/mL and 13.96 ng/mL and 15.17 ng/mL and 10.92 ng/mL and 17.76 ng/mL
same,p4 = concentration of progesterone in plasma,[3]; time −3,14.93 ng/mL and 13.88 ng/mL and 15.28 ng/mL and 14.66 ng/mL and 16.68 ng/mL
same,p4 = concentration of progesterone in plasma,[3]; time −4,15.25 ng/mL and 13.49 ng/mL
same,induction of parturition,[4],effectively induced parturition
same,"time interval from the 1st administration to the onset of parturition, relative to non-medicated controls",[5]; 4 mg/kg BW days 112 and 113 of gestation,half
same,"number of piglets born dead (stillborns), mean",[5]; [9],0.1 pigs/litter
same,"percent of animals that farrowed the day following the first treatment (day 113, within 1 day)",[5]; [9],44% and 45%
same,percent of animals with onset of parturition within 2 days,[5]; [9],100%
same,percent of treated animals that farrowed on day 114,[5]; [9],56%
same,"Hr, 1st dose d 112 To 1st pig ± SD",[5]; [10],36 ± 15 (9) Hr
same,"Hr, 2nd dose d 113 To 1st pig ± SD",[5]; [10],36 ± 15 (9) Hr
same,Piglet data: Born alive,[5]; [11],8.9 (9)
same,Piglet data: Mummies,[5]; [11],0 (9)
same,Piglet data: Stillborn,[5]; [11],0.1* (9)
same,Mummified fetuses,"[5]; T2: 4 mg/kg orally days 112 and 113, individual animals",0
same,"Hr, Dose d 112 To 1st pig ± SD",[2]; [12],45 ± 26^a (13) Hr
same,"Hr, Dose d 113 To 1st pig ± SD",[2]; [12],45 ± 26^b (13) Hr
same,Piglet data: Born alive,[2]; [13],9.2 (13)
same,Piglet data: Mummies,[2]; [13],0.4* (13)
same,Piglet data: Stillborn,[2]; [13],0.7 (13)
same,number of stillborns lower compared with T1 non-medicated controls,"[2]; T2: 4 mg/kg days 112 and 113, numerically, not statistically",0.4 pigs/litter
same,percent of animals that started farrowing on day 114,[2]; T2: 4 mg/kg on days 112 and 113 (4/13),31%
same,percent of animals that started farrowing on day 113,[2]; T2: 4 mg/kg on days 112 and 113 (7/13),Fifty-four
same,Reason (animals with incomplete data),"[2]; T2 CP161,258 D 112 + 113",Dystocia
same,"Hr, Dose d 112 To 1st pig ± SD",[2]; [14],33 ± 20 (13) Hr
same,"Hr, Dose d 113 To 1st pig ± SD",[2]; [14],33 ± 20^c (13) Hr
same,percent of animals that started farrowing on day 114,[2]; T3: 8 mg/kg BW on day 113 (11/13),85%
same,Piglet data: Born alive,[2]; T3: 8 mg/kg BW oral D 113,8.6 (13)
same,Piglet data: Mummies,[2]; T3: 8 mg/kg BW oral D 113,0.2 (13)
same,Piglet data: Stillborn,[2]; T3: 8 mg/kg BW oral D 113,0.5 (13)
same,number of stillborns reduced compared with T1 non-medicated controls,"[2]; T3: single dose 8 mg/kg BW day 113, numerically, not statistically",0.6 pigs/litter
same,Born Alive,[2]; [15],8 and 13 (2×) and 10 (3×) and 9 (2×) and 7 and 2 and 12 and 6 and 11
same,"Hr, 1st treatment to 1st pig",[2]; [15],22.5 h and 24.5 h and 26.4 h and 28.6 h and 28.9 h and 32.1 h and 33.6 h and 45.7 h and 46 h and 46.3 h and 49.1 h and 96.3 h and 101 h
same,Mummies,[2]; [15],0 (9×) and 2 and 1 (3×)
same,Still-born,[2]; [15],1 (9×) and 0 (4×)
same,Born Alive,[2]; [16],6 (3×) and 13 and 12 and 10 (3×) and 7 and 14 and 11 and 4 and 3
same,"Hr, 1st treatment to 1st pig",[2]; [16],49 h and 96 h and 21.2 h and 23.7 h and 24.4 h and 24.5 h and 24.7 h and 25.1 h and 25.2 h and 25.3 h and 26.3 h and 27.1 h and 34.4 h and 93.8 h
same,Mummies,[2]; [16],0 (10×) and 1 (3×)
same,Still-born,[2]; [16],0 (8×) and 2 (2×) and 1 (3×)
same,percent of animals that farrowed 24 to 27 hr post-dosing,[2]; single dose of 8 mg/kg BW,70%
same,percent of animals that farrowed between 21 and 35 hr after dosing,[2]; single dose of 8 mg/kg BW,85%
